Results from patent US20030138785A1 (priority 2001, published 2003).

What was measured:
LexA-rGR and B42-DHFR = biological target: T1, LexA-rGR and B42-DHFR (UniProt P06536+P0ABQ4); conditions: shown by WO 01/53355; cited from earlier work
T1 sequence (P06536 542-776 limits assumed): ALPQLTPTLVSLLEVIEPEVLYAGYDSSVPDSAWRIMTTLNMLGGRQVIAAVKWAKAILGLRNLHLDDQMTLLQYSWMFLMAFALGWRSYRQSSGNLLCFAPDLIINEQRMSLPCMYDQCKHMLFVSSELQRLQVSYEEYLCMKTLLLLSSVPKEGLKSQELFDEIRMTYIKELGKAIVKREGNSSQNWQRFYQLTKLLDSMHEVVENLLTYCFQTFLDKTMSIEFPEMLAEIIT
T1 sequence (P0ABQ4 1-159): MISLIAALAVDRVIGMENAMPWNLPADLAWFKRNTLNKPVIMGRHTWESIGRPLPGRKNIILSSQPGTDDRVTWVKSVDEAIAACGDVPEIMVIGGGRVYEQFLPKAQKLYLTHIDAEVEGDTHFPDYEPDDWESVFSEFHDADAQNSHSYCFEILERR

DHFR fusion protein = assay: MP5 competition assay (yeast three-hybrid X-gal plate assay of lacZ transcription); type: cell-based; conditions: 1 μM D8M, X-gal plates, LexA/B42 chimeras of DHFR and rGR
Procedure: FIG. 7. MP5 Competition Assay. […] Columns A through H on each plate correspond to yeast strains containing different LexA- and/or B42-chimeras: A, LexA-Sec16p, B42-Sec6p. A is a direct protein-protein interaction used as a positive control. B, LexA, B42. C, LexA-eDHFR, B42-rGR. D, LexA-mDHFR, B42-rGR. E, LexA-rGR, B42-eDHFR. F, LexA-rGR, B42-mDHFR. G, LexA-eDHFR, B42. H, LexA, B42-rGR.
This competition assay was performed using D8M as the “well characterized” small molecule.

[1] = tested on: dihydrofolate reductase (DHFR); conditions: cited from earlier work
S. cerevisiae = conditions: supplemented with appropriate nutrients; cited from earlier work
E. coli = conditions: supplemented with appropriate nutrients; cited from earlier work

C[C@@H]1C[C@H]2C3CCC4=CC(=O)C=C[C@]4(C)[C@@]3(F)[C@@H](O)C[C@]2(C)[C@@]1(O)C(=O)NCCSCCCCCCCCSCC[C@H](NC(=O)c1ccc(N(C)Cc2cnc3nc(N)nc(N)c3n2)cc1)C(=O)O (stereo partly drawn) [D8M]
dimerization of LexA-rGR and B42-DHFR based on lacZ transcription (LexA-rGR and B42-DHFR): mediate the dimerization of LexA-rGR and B42-DHFR
induction of lacZ transcription (DHFR fusion protein): induced lacZ transcription

CN(Cc1cnc2nc(N)nc(N)c2n1)c1ccc(C(=O)N[C@@H](CCC(=O)O)C(=O)O)cc1 [MTX, methotrexate]
affinity of DHFR binding [1]: nM affinity
affinity of DHFR inhibition [1]: pM affinity
growth in the presence of MTX (S. cerevisiae): grow in the presence of MTX
growth in the presence of MTX (E. coli): grow in the presence of MTX
